# Reference: patent US20230181614A1, “ADMINISTRATION OF CITICOLINE TO IMPROVE COGNITIVE PERFORMANCE, ATTENTIONAL PERFORMANCE, AND MOTOR FUNCTION” (KYOWA HAKKO BIO CO., LTD., priority 2014, published 2023)
# Several values for one entry are separate records, joined by “and”; a condition that tells them apart may be missing. Equal entries are not always repeated.
# How the values were obtained:
# [1] = tested on: Healthy subjects, ages 13-18; experiment: Trail Making Test; type: in vivo, human; design: Trail Making B V1 (Mean) / Trail Making B V3 (Mean) / Trail Making B-A V1 (Mean) / Trail Making B-A V3 (Mean) / V3-V1 Trail Making B (Mean) / V3-V1 Trail Making B-A (Mean): unit not given here; conditions: for Trail Making A V1 (Mean) / Trail Making B V1 (Mean) / Trail Making B-A V1 (Mean): Visit 1; for Trail Making A V3 (Mean) / Trail Making B V3 (Mean) / Trail Making B-A V3 (Mean): Visit 3; for V3-V1 Trail Making A (Mean) / V3-V1 Trail Making B (Mean) / V3-V1 Trail Making B-A (Mean): visit difference score V3-V1
# Source text: Study participants were screened by telephone prior to study enrollment. Healthy subjects, ages 13-18, with no significant medical conditions and no history of co-morbid psychiatric disorder, current Axis I or II diagnosis, or previous participation in a pharmacotherapeutic trial, were selected. Use of any psychotropic medication or any previous head injury resulting in loss of consciousness for 5 or more minutes were used as exclusion criteria. While no participant met criteria for a neuropsychiatric disorder at enrollment, clinical assessments were still completed throughout the study to evaluate changes in mood state. In addition, self-reports of sleep habits, lifestyle, and exercise routines were also administered at baseline as well as at each study visit to assess changes in health habits during study participation.
# Following the completion of Visit 1 assessment, participants were given their 28-day supply of citicoline (250 mg or 500 mg) or placebo, which was randomly assigned. They were instructed to take one capsule a day every day for the next 28 days.
# Visit 2 occurred fourteen days after Visit 1. At Visit 2, the remaining study pills were counted and participant dosage calendars were checked to ensure compliance with the protocol. Additional neuropsychological measures and clinical assessments were administered during this visit.
# Participants returned for Visit 3 fourteen days later, on the 28th day of their study participation. The pill bottle and the dosage calendar were collected from each participant. Urine and blood were again obtained. Participants also participated in similar clinical and neuropsychological testing and clinical measures that were given during visit 1.
# The Trail Making Test is designed to measure visual conceptual and visuomotor tracking, as well as maintenance of cognitive set. On Trial A the participant must draw lines to connect consecutively numbered circles on one work sheet (1-2-3-4 etc.). For Part B they must connect numbered and lettered circles by alternating between the two sequences (i.e., 1-A-2-B etc.). Part B is the more sensitive of the two tests -- particularly to frontal-lobe dysfunction -- as scores on this section are indicative of the participant’s ability to shift sets (numeric to alphabetical order) and process concurrent stimuli. This test was administered on all three visits.
# [2] = tested on: Healthy subjects, ages 13-18; experiment: Barratt Impulsiveness Scale (BIS); type: in vivo, human; design: BIS Attention, Mean / BIS Motor, Mean / BIS Total, Mean: scale not given here
# Source text: Study participants were screened by telephone prior to study enrollment. Healthy subjects, ages 13-18, with no significant medical conditions and no history of co-morbid psychiatric disorder, current Axis I or II diagnosis, or previous participation in a pharmacotherapeutic trial, were selected. Use of any psychotropic medication or any previous head injury resulting in loss of consciousness for 5 or more minutes were used as exclusion criteria. While no participant met criteria for a neuropsychiatric disorder at enrollment, clinical assessments were still completed throughout the study to evaluate changes in mood state. In addition, self-reports of sleep habits, lifestyle, and exercise routines were also administered at baseline as well as at each study visit to assess changes in health habits during study participation. Following the completion of Visit 1 assessment, participants were given their 28-day supply of citicoline (250 mg or 500 mg) or placebo, which was randomly assigned. They were instructed to take one capsule a day every day for the next 28 days. Visit 2 occurred fourteen days after Visit 1. At Visit 2, the remaining study pills were counted and participant dosage calendars were checked to ensure compliance with the protocol. Additional neuropsychological measures and clinical assessments were administered during this visit. Participants returned for Visit 3 fourteen days later, on the 28th day of their study participation. The pill bottle and the dosage calendar were collected from each participant. Urine and blood were again obtained. Participants also participated in similar clinical and neuropsychological testing and clinical measures that were given during visit 1. The BIS is a questionnaire is a scale used to measure impulsiveness. It includes three subscales: attentional, motor, and non-planning impulsiveness. A total score, or a sum of the three factors, was also calculated. The scale was administered at the first and third visits to assess presence or absence of symptoms of impulsiveness.
compound,measurement,setting,value
"C[N+](C)(C)CCOP(=O)(O)OP(=O)([O-])OC[C@H]1O[C@@H](n2ccc(N)nc2=O)[C@H](O)[C@@H]1O [citicoline, Cytidine 5′-diphosphocholine]",Trail Making A V1 (Mean),[1]; 250 mg/day group,11.16
same,Trail Making B V1 (Mean),[1]; 250 mg/day group,29.15
same,Trail Making B-A V1 (Mean),[1]; 250 mg/day group,17.99
same,Trail Making A V3 (Mean),[1]; 250 mg/day group,9.37
same,Trail Making B V3 (Mean),[1]; 250 mg/day group,18.40
same,Trail Making B-A V3 (Mean),[1]; 250 mg/day group,9.00
same,V3-V1 Trail Making A (Mean),[1]; 250 mg/day group,-1.80
same,V3-V1 Trail Making B (Mean),[1]; 250 mg/day group,-10.75
same,V3-V1 Trail Making B-A (Mean),[1]; 250 mg/day group,-8.99
same,Trail Making A V1 (Mean),[1]; 500 mg/day group,12.89
same,Trail Making B V1 (Mean),[1]; 500 mg/day group,28.60
same,Trail Making B-A V1 (Mean),[1]; 500 mg/day group,15.71
same,Trail Making A V3 (Mean),[1]; 500 mg/day group,9.28
same,Trail Making B V3 (Mean),[1]; 500 mg/day group,23.02
same,Trail Making B-A V3 (Mean),[1]; 500 mg/day group,13.73
same,V3-V1 Trail Making A (Mean),[1]; 500 mg/day group,-3.60
same,V3-V1 Trail Making B (Mean),[1]; 500 mg/day group,-5.58
same,V3-V1 Trail Making B-A (Mean),[1]; 500 mg/day group,-1.98
same,"BIS Attention, Mean","[2]; 250 mg/day, V1 (baseline)",18.52
same,"BIS Motor, Mean","[2]; 250 mg/day, V1 (baseline)",22.22
same,"BIS Non-planning, Mean","[2]; 250 mg/day, V1 (baseline)",24.85
same,"BIS Total, Mean","[2]; 250 mg/day, V1 (baseline)",65.59
same,"BIS Attention, Mean","[2]; 250 mg/day, V3 (day 28)",18.59
same,"BIS Motor, Mean","[2]; 250 mg/day, V3 (day 28)",22.00
same,"BIS Non-planning, Mean","[2]; 250 mg/day, V3 (day 28)",24.44
same,"BIS Total, Mean","[2]; 250 mg/day, V3 (day 28)",65.04
same,"BIS Attention, Mean","[2]; 250 mg/day, V3-V1",0.07
same,"BIS Motor, Mean","[2]; 250 mg/day, V3-V1",-0.22
same,"BIS Non-planning, Mean","[2]; 250 mg/day, V3-V1",-0.41
same,"BIS Attention, Mean","[2]; 500 mg/day, V1 (baseline)",16.54
same,"BIS Motor, Mean","[2]; 500 mg/day, V1 (baseline)",20.21
same,"BIS Non-planning, Mean","[2]; 500 mg/day, V1 (baseline)",22.67
same,"BIS Total, Mean","[2]; 500 mg/day, V1 (baseline)",59.63
same,"BIS Attention, Mean","[2]; 500 mg/day, V3 (day 28)",16.50
same,"BIS Motor, Mean","[2]; 500 mg/day, V3 (day 28)",20.04 and 19.29
same,"BIS Non-planning, Mean","[2]; 500 mg/day, V3 (day 28)",21.71 and 22.42
same,"BIS Total, Mean","[2]; 500 mg/day, V3 (day 28)",58.21
same,"BIS Attention, Mean","[2]; 500 mg/day, V3-V1",-0.04
same,"BIS Motor, Mean","[2]; 500 mg/day, V3-V1",-1.00
same,"BIS Non-planning, Mean","[2]; 500 mg/day, V3-V1",-0.38
same,"BIS Total, Mean","[2]; 500 mg/day, V3-V1",-1.42
